Source: patent US20260022142A1, “MACROCYCLIC IMMUNOMODULATORS” (Bristol-Myers Squibb Company, priority 2022, published 2026)
Bridge positions count the residues as written; N and C are the ends. Square brackets hold non-standard residues; d marks the D form. Peptide text beside a SMILES is read from it. * marks the point of attachment. ξ: configuration not given here. Phe(4-CH2CH2COOH) = N[C@@H](Cc1ccc(CCC(=O)O)cc1)C(=O)O; Phe(3-CF3) = N[C@@H](Cc1cccc(C(F)(F)F)c1)C(=O)O; Phe(4-COOH) = N[C@@H](Cc1ccc(C(=O)O)cc1)C(=O)O; Bip = N[C@@H](Cc1ccc(-c2ccccc2)cc1)C(=O)O; NH(CH2)14COOH = O=C(O)CCCCCCCCCCCCCCN*; Phe(3-Me) = Cc1cccc(C[C@H](N)C(=O)O)c1; NH(CH2)12COOH = O=C(O)CCCCCCCCCCCCN*; Val(3-OH) = CC(C)(O)[C@H](N)C(=O)O; Cha = N[C@@H](CC1CCCCC1)C(=O)O; Thr(3ξ) = CC(O)[C@H](N)C(=O)O; Carboxymethyl = O=C(O)C*; Nle = CCCC[C@H](N)C(=O)O; Orn = NCCC[C@H](N)C(=O)O; Dab = NCC[C@H](N)C(=O)O; AEEA = NCCOCCOCC(=O)O; CF3 = FC(F)(F)*

Molecular target: T1, PD-1/PD-L1 interaction (PE-labeled human PD-L1-Ig binding to Jurkat cell line over-expressing human PD-1) (Homo sapiens, UniProt Q15116)
T1 construct: expressed in transfected cells; host or cells: Jurkat
Experiment: Jurkat-PD-1 Cell Binding High-Content Screening Assay (CBA)
Assay type: cell-based
Conditions: Jurkat cell line over-expressing human PD-1; PE-labeled PD-L1-Ig 20 nM final; read-out: Jurkat hPD1-PDL1 IC50
Procedure, shortened: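 Jurkat cells stably over-expressing human PD-1 were seeded in DMEM with 10% fetal calf serum and pre-incubated with compound for 2 h at 37° C. PE-labeled human PD-L1-Ig was then added at 20 nM final for 1 hour, after which cells were fixed with paraformaldehyde, Hoechst-stained and imaged by high-content microscopy.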

T1 sequence (Q15116 25-288): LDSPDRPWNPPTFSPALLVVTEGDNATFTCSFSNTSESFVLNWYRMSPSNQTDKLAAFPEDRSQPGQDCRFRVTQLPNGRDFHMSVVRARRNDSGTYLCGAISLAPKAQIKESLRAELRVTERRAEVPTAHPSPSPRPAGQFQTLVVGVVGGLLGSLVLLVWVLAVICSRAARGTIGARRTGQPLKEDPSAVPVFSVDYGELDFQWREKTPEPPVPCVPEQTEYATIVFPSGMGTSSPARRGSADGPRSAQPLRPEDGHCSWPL

Row | SMILES | IC50
1 | CCCC[C@@H]1NC(=O)CSC[C@@H](C(=O)N[C@@H](CCN)C(=O)NCCCCCCCCCCCCCCC(=O)O)NC(=O)[C@H](C(C)O)NC(=O)[C@H](C(C)(C)O)NC(=O)[C@H](CC2CCCCC2)NC(=O)[C@H](CCN)NC(=O)[C@@H](CC(C)C)NC(=O)[C@H](Cc2cnc[nH]2)NC(=O)[C@H](Cc2ccc(OCC(=O)O)cc2)NC(=O)[C@H](Cc2ccc(-c3ccccc3)cc2)NC(=O)[C@H](Cc2ccc(C(=O)O)cc2)NC(=O)[C@H](Cc2cccc(C(F)(F)F)c2)NC(=O)[C@H](CC(=O)O)NC(=O)[C@H](Cc2ccc(OCC(=O)O)cc2)NC1=O (stereo partly drawn) [Compound 3863] ({CH2CO}-[Nle]Y(Carboxymethyl)D[Phe(3-CF3)][Phe(4-COOH)][Bip]Y(Carboxymethyl)H[dL][Dab][Cha][Val(3-OH)][Thr(3ξ)]C[Dab]-{NH(CH2)14COOH}; thioether N-14) | 430 nM
2 | CC(=O)NCCCC[C@@H]1NC(=O)[C@H](C(C)(C)O)NC(=O)[C@H](CC2CCCCC2)NC(=O)[C@H](CCN)NC(=O)[C@@H](CC(C)C)NC(=O)[C@H](CCCN)NC(=O)[C@H](Cc2ccc(C(=O)O)cc2)NC(=O)[C@H](Cc2ccc(-c3ccccc3)cc2)NC(=O)[C@H](Cc2ccc(C(=O)O)cc2)NC(=O)[C@H](Cc2cccc(C)c2)NC(=O)[C@H](CC(=O)O)NC(=O)[C@H](Cc2ccc(OCC(=O)O)cc2)NC(=O)[C@H](Cc2ccc(OCC(=O)O)cc2)NC(=O)CSC[C@@H](C(=O)N[C@@H](CCN)C(=O)NCCCCCCCCCCCCCCC(=O)O)NC1=O [Compound 3865] ({CH2CO}-Y(Carboxymethyl)Y(Carboxymethyl)D[Phe(3-Me)][Phe(4-COOH)][Bip][Phe(4-COOH)][Orn][dL][Dab][Cha][Val(3-OH)]K(Ac)C[Dab]-{NH(CH2)14COOH}; thioether N-14) | 119 nM
3 | CC(C)C[C@H]1NC(=O)[C@H](CCCN)NC(=O)[C@H](Cc2ccc(OCC(=O)O)cc2)NC(=O)[C@H](Cc2ccc(-c3ccccc3)cc2)NC(=O)[C@H](Cc2ccc(CCC(=O)O)cc2)NC(=O)[C@H](Cc2cccc(C(F)(F)F)c2)NC(=O)[C@H](CC(=O)O)NC(=O)[C@H](Cc2ccc(OC(F)(F)F)cc2)NC(=O)[C@H](C)NC(=O)CSC[C@@H](C(=O)N[C@@H](CCN)C(=O)NCCCCCCCCCCCCCCC(=O)O)NC(=O)[C@H](CCC(=O)O)NC(=O)[C@H](C(C)C)NC(=O)[C@H](CC2CCCCC2)NC(=O)[C@H](CCN)NC1=O [Compound 3866] ({CH2CO}-AY(CF3)D[Phe(3-CF3)][Phe(4-CH2CH2COOH)][Bip]Y(Carboxymethyl)[Orn][dL][Dab][Cha]VEC[Dab]-{NH(CH2)14COOH}; thioether N-14) | 676 nM
4 | CC(C)C[C@H]1NC(=O)[C@H](Cc2cnc[nH]2)NC(=O)[C@H](Cc2ccc(C(=O)O)cc2)NC(=O)[C@H](Cc2ccc(-c3ccccc3)cc2)NC(=O)[C@H](Cc2ccc(C(=O)O)cc2)NC(=O)[C@H](Cc2cccc(C(F)(F)F)c2)NC(=O)[C@H](CC(=O)O)NC(=O)[C@H](Cc2ccc(C(=O)O)cc2)NC(=O)[C@H](C(C)O)NC(=O)CSC[C@@H](C(=O)N[C@@H](CCN)C(=O)NCCOCCOCC(=O)NCCCCCCCCCCCCC(=O)O)NC(=O)[C@H](CC(=O)O)NC(=O)[C@H](C(C)C)NC(=O)[C@H](CC2CCCCC2)NC(=O)[C@H](CCN)NC1=O (stereo partly drawn) [Compound 3867] ({CH2CO}-[Thr(3ξ)][Phe(4-COOH)]D[Phe(3-CF3)][Phe(4-COOH)][Bip][Phe(4-COOH)]H[dL][Dab][Cha]VDC[Dab][AEEA]-{NH(CH2)12COOH}; thioether N-14) | 48.1 nM
